Reference: patent US20110237520A1, “Anticancer Compounds” (priority 2008, published 2011)
Like-named read-outs stand apart in the source and are kept apart here. Numbered stars: 1 amine (or outer) side, 2 acyl side, 3 side chain; on linkers, the order of the positions; unused ones are H or OH. Bridge positions count the residues as written; N and C are the ends. Square brackets hold non-standard residues; d marks the D form. Peptide text beside a SMILES is read from it. * marks the point of attachment. ξ: configuration not given here. dNle(3R-OH,4R,5-Me2) = CC(C)[C@@H](C)[C@@H](O[*:3])[C@@H](N[*:1])C(=O)[*:2]; γ4hArg(2R,3R-(OH)2) = N=C(N)NCCC[C@H](N[*:1])[C@@H](O)[C@@H](O)C(=O)[*:2]; Heptanoyl(3R-OH,2R,4R,6-Me3) = CC(C)C[C@@H](C)[C@@H](O)[C@@H](C)C(=O)*; X5 = CO[C@H](c1ccc(O)cc1)C(N[*:1])C(=O)C[C@H](CC(N)=O)C(=O)[*:2]; Gln(3S,4R-Me2) = C[C@H]([C@H](N)C(=O)O)[C@@H](C)C(N)=O; X1 = NC(=O)CC[C@H](N[*:1])[C@@H](O)[C@@H](O)C(=O)[*:2]; X7 = O=C(O)CC[C@H](N[*:1])[C@@H](O)[C@@H](O)C(=O)[*:2]; ξThr(3R)(O-yl) = C[C@@H](O[*:3])C(N[*:1])C(=O)[*:2]; X6 = CC[C@@H](C)C[C@@H](C)[C@@H](O)[C@@H](C)C(=O)*; X4 = C[C@H](C(N[*:1])C(=O)[*:2])[C@@H](C)C(N)=O; Asn(3S-OEt) = CCO[C@H](C(N)=O)[C@H](N)C(=O)O; dAsp(3S-OH) = N[C@@H](C(=O)O)[C@H](O)C(=O)O; ξGln(3,4-Me2) = CC(C(N)=O)C(C)C(N)C(=O)O; X3 = CC(O)C(N[*:1])C(O)C(O)C(=O)[*:2]; ξAsn(3ξ-OMe) = COC(C(N)=O)C(N)C(=O)O; d(aThr) = C[C@@H](O)[C@@H](N)C(=O)O; X2 = CC(C)CC(C)CC(C)C(O)C(C)C(=O)*; NMeQ = CN[CH](CCC(N)=O)C(=O)O; ξNle(4ξ-Me) = CCC(C)CC(N)C(=O)O; ξThr(3R) = C[C@@H](O)C(N)C(=O)O; dOrn = NCCC[C@@H](N)C(=O)O; Pip = O=C(O)[CH]1CCCCN1; Orn = NCCC[CH](N)C(=O)O; ξL = CC(C)CC(N)C(=O)O

Legend:
MDA-MB-231 = experiment: SRB colorimetric cytotoxicity assay, MDA-MB-231; assay type: cell-based, human; settings: MDA-MB-231, 72 hours treatment; for GI50: 50% cell growth inhibition; for TGI: total cell growth inhibition
Excerpt: (§1) The aim of this assay is to evaluate the in vitro cytostatic (ability to delay or arrest tumor cell growth) or cytotoxic (ability to kill tumor cells) activity of the samples being tested.
(§2) A colorimetric assay, using sulforhodamine B (SRB) reaction has been adapted to provide a quantitative measurement of cell growth and viability (following the technique described by Skehan et al. J. Natl. Cancer Inst. 1990, 82, 1107-1112).
(§3) This form of assay employs SBS-standard 96-well cell culture microplates (Faircloth et al. Methods in Cell Science, 1988, 11(4), 201-205; Mosmann et al, Journal of Immunological Methods, 1983, 65(1-2), 55-63). All the cell lines used in this study were obtained from the American Type Culture Collection (ATCC) and derive from different types of human cancer.
(§4) Cells were maintained in Dulbecco's Modified Eagle Medium (DMEM) supplemented with 10% Fetal Bovine Serum (FBS), 2 mM L-glutamine, 100 U/mL penicillin and 100 U/mL streptomycin at 37° C., 5% CO2 and 98% humidity. For the experiments, cells were harvested from subconfluent cultures using trypsinization and resuspended in fresh medium before counting and plating.
(§5) Cells were seeded in 96 well microtiter plates, at 5×10^3 cells per well in aliquots of 150 μL, and allowed to attach to the plate surface for 18 hours (overnight) in drug free medium. After that, one control (untreated) plate of each cell line was fixed (as described below) and used for time zero reference value. Culture plates were then treated with test compounds (50 μL aliquots of 4× stock solutions in complete culture medium plus 4% DMSO) using ten serial dilutions (concentrations ranging from 10 to 0.00262 μg/mL) and triplicate cultures (1% final concentration of DMSO). After 72 hours treatment, the antitumor effect was measured by using the SRB methodology: Briefly, cells were washed twice with PBS, fixed for 15 min in 1% glutaraldehyde solution at room temperature, rinsed twice in PBS, and stained in 0.4% SRB solution for 30 min at room temperature. Cells were then rinsed several times with 1% acetic acid solution and air-dried at room temperature. SRB was then extracted in 10 mM trizma base solution and the absorbance measured in an automated spectrophotometric plate reader at 490 nm. Effects on cell growth and survival were estimated by applying the NCI algorithm (Boyd M R and Paull K D. Drug Dev. Res. 1995, 34, 91-104).
(§6) Using the mean±SD of triplicate cultures, a dose-response curve was automatically generated using nonlinear regression analysis. Three reference parameters were calculated (NCI algorithm) by automatic interpolation: GI50=compound concentration that produces 50% cell growth inhibition, as compared to control cultures; TGI=total cell growth inhibition (cytostatic effect), as compared to control cultures, and LC50=compound concentration that produces 50% net cell killing (cytotoxic effect).

HT29 = experiment: SRB colorimetric cytotoxicity assay, HT29; assay type: cell-based, human; settings: for GI50: 50% cell growth inhibition; for CC50: 50% net cell killing, read-out: LC50 (the source's name); for TGI: total cell growth inhibition
Excerpt: as §1, §2, §3, §4, §5, §6

A549 = experiment: SRB colorimetric cytotoxicity assay, A549; assay type: cell-based, human; settings: A549, 72 hours treatment; for GI50: 50% cell growth inhibition; for CC50: 50% net cell killing, read-out: LC50 (the source's name); for TGI: total cell growth inhibition
Excerpt: as §1, §2, §3, §4, §5, §6

HIV-1 = settings: cell-based XTT assay; read-out: IC50, cytoprotective activity against HIV-1 infection; cited from earlier work
HIV-1RF [1] = settings: human T-cell line CEM-SS infected with HIV-1RF, 6 day incubation; read-out: EC50, inhibition of the cytopathic effect of HIV-1 infection; cited from earlier work
HIV-1RF [2] = settings: in vitro; cited from earlier work
[3] = system: panel of human cancer cell lines; settings: mean over a panel of human cancer cell lines; cited from earlier work
[4] = Homo sapiens, HT-29, HT29, 72 hours treatment

Compound: CCO[C@H](C(N)=O)[C@@H]1NC(=O)[C@H](CCC(N)=O)N(C)C(=O)[C@H](CC(C)C)NC(=O)[C@@H](CCCCN)NC(=O)[C@@H]([C@@H](C)O)NC(=O)[C@H](NC(=O)[C@@H](NC(=O)[C@H](O)[C@H](O)[C@H](CCC(N)=O)NC(=O)[C@@H](CC(=O)O)NC(=O)[C@H](C)[C@H](O)[C@H](C)CC(C)C)[C@@H](C)[C@@H](C)C(N)=O)[C@@H]([C@H](C)C(C)C)OC(=O)[C@@H]2CCCCN2C(=O)[C@@H](CC(=O)O)NC1=O [Pipecolidepsin A] ({Heptanoyl(3R-OH,2R,4R,6-Me3)}-[dD][X1][Gln(3S,4R-Me2)][dNle(3R-OH,4R,5-Me2)][d(aThr)][dK]L[NMeQ][Asn(3S-OEt)][dD][Pip]; ester 4-C)
- GI50 (MDA-MB-231): 725 nM
- LC50 (50% net cell killing) (MDA-MB-231): 1750 nM
- TGI (MDA-MB-231): 1.15E−06 Molar
- GI50 (HT29; HT29, 72 hours treatment): 1150 nM
- CC50 (HT29; HT29, 72 hours treatment): 1570 nM
- TGI (HT29; HT29, 72 hours treatment): 1.33E−06 Molar
- GI50 (A549): 604 nM
- CC50 (A549): 1390 nM
- TGI (A549): 9.06E−07 Molar

Compound: CCO[C@H](C(N)=O)[C@@H]1NC(=O)[C@H](CCC(N)=O)N(C)C(=O)[C@H](CC(C)C)NC(=O)[C@@H](CCCCN)NC(=O)[C@@H]([C@@H](C)O)NC(=O)[C@H](NC(=O)[C@@H](NC(=O)[C@H](O)[C@H](O)[C@H](CCC(N)=O)NC(=O)[C@H](NC(=O)[C@H](C)[C@H](O)[C@H](C)CC(C)C)[C@H](O)C(=O)O)[C@@H](C)[C@@H](C)C(N)=O)[C@@H]([C@H](C)C(C)C)OC(=O)[C@@H]2CCCCN2C(=O)[C@@H](CC(=O)O)NC1=O [Pipecolidepsin B] ({Heptanoyl(3R-OH,2R,4R,6-Me3)}-[dAsp(3S-OH)][X1][Gln(3S,4R-Me2)][dNle(3R-OH,4R,5-Me2)][d(aThr)][dK]L[NMeQ][Asn(3S-OEt)][dD][Pip]; ester 4-C)
- GI50 (MDA-MB-231): 23.3 nM
- LC50 (50% net cell killing) (MDA-MB-231): 209 nM
- TGI (MDA-MB-231): 6.58E−08 Molar
- GI50 (HT29; HT29, 72 hours treatment): 14.4 nM
- CC50 (HT29; HT29, 72 hours treatment): 65.8 nM
- TGI (HT29; HT29, 72 hours treatment): 2.69E−08 Molar
- GI50 (A549): 35.3 nM
- CC50 (A549): 353 nM
- TGI (A549): 1.08E−07 Molar

Compound: CCC(C)CC1NC(=O)C(CCCN)NC(=O)C(C(C)O)NC(=O)C(NC(=O)C(NC(=O)C(O)C(O)C(NC(=O)CNC(=O)C(C)C(O)C(C)CC(C)CC(C)C)C(C)O)C(C)C(C)C(N)=O)C(C)OC(=O)C2CCCCN2C(=O)C(CC(N)=O)NC(=O)C(C(OC)C(N)=O)NC(=O)C(CCC(N)=O)N(C)C1=O (centres unmarked) [Pipecolidepsin C] (X2-G[X3][ξGln(3,4-Me2)]TT[Orn][ξNle(4ξ-Me)][NMeQ][ξAsn(3ξ-OMe)]N[Pip]; ester 4-C; configuration not given here)
- GI50 (MDA-MB-231; Homo sapiens): 480 nM
- LC50 (50% net cell killing) (MDA-MB-231; Homo sapiens): 907 nM
- TGI (MDA-MB-231): 6.48E−07 Molar
- TGI (HT29; HT29, 72 hours treatment): 8.43E−07 Molar
- GI50 (HT29; [4]): 648 nM
- CC50 (HT29; [4]): 1040 nM
- TGI (A549): 5.25E−07 Molar
- GI50 (A549; Homo sapiens): 428 nM
- CC50 (A549; Homo sapiens): 648 nM

Compound: CC[C@@H](C)C[C@@H](C)[C@@H](O)[C@@H](C)C(=O)N[C@H](CCCN)C(=O)N[C@@H](CCC(=O)O)[C@@H](O)[C@@H](O)C(=O)N[C@H](C(=O)N[C@H]1C(=O)N[C@H](CO)C(=O)N[C@H](CCCN)C(=O)N[C@@H](CC(C)C)C(=O)N(C)[C@@H](CCC(N)=O)C(=O)N[C@@H]([C@@H](C)OC)C(=O)N[C@H](CC(=O)O)C(=O)N2CCCC[C@H]2C(=O)O[C@@H]1[C@H](C)C(C)C)[C@@H](C)[C@@H](C)C(N)=O [homophymine A] (X6-[dOrn][X7][Gln(3S,4R-Me2)][dNle(3R-OH,4R,5-Me2)][dS][dOrn]L[NMeQ]T(Me)[dD][Pip]; ester 4-C)
- IC50 (HIV-1): 75 nM

Compound: CO[C@H](c1ccc(O)cc1)C1NC(=O)[C@H](CCC(N)=O)N(C)C(=O)C(CC(C)C)NC(=O)[C@@H](CCCNC(=N)N)NC(=O)C([C@@H](C)O)NC(=O)C(NC(=O)C(NC(=O)[C@H](O)[C@H](O)[C@H](CCCNC(=N)N)NC(=O)[C@H](CC(N)=O)NC(=O)[C@H](C)[C@H](O)[C@H](C)CC(C)C)[C@@H](C)[C@@H](C)C(N)=O)[C@@H](C)OC(=O)[C@@H]2CCCCN2C(=O)[C@@H](CC(N)=O)CC1=O (stereo partly drawn) [neamphamide A] ({Heptanoyl(3R-OH,2R,4R,6-Me3)}-N[γ4hArg(2R,3R-(OH)2)][X4][ξThr(3R)(O-yl)][ξThr(3R)][dR][ξL][NMeQ][X5][Pip]; ester 4-C)
- EC50 (HIV-1RF [1]): 28 nM

Compound: papuamide A
- EC50, inhibition of infection of human T-lymphoblastoid cells by HIV-1RF (HIV-1RF [2]): approximately 4 ng/mL
- mean IC50, cytotoxicity [3]: 0.075 µg/mL

Compound: papuamide B
- EC50, inhibition of infection of human T-lymphoblastoid cells by HIV-1RF (HIV-1RF [2]): approximately 4 ng/mL
